Measurements as given in PubChem BioAssay AID2060613 (Molecular Pharmacology Branch, DTP, NCI, 2025).

Tested on: 233499-124-R-J3-PDC complex spheroid viability
Assay: Anticancer human tumor 233499-124-R-J3-PDC patient-derived colon adenocarcinoma cell line growth inhibition [CLK]
Conditions: for IC50: curve of first compound; for viability, T/C: stronger effect = lower value; active = viability on the fitted dose curve at most 10% of control; inactive = the rest
In short: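 Patient-derived tumor cells grown as complex spheroids with HUVEC endothelial cells and mesenchymal stem cells, treated with drug combinations. Concentrations descend in half-log steps from near clinical Cmax, or from 10 microM if Cmax unknown.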
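Note: spheroids exposed to the drug combinations for seven days.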
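Throughout, for viability, T/C: percent viability relative to DMSO vehicle control wells taken as 100%.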

C=CC(=O)Nc1cc(Nc2nccc(-c3cn(C)c4ccccc34)n2)c(OC)cc1N(C)CCN(C)C + CN1CCN(c2cc(C(=O)Nc3cc4cc(-c5cnn(C)c5)ccc4cn3)ccn2)CC1
inactive: viability, T/C (second compound 0.0316 µM, first compound 0.000949 µM) 85.9% | viability, T/C (second compound 0.0316 µM, first compound 0.003 µM) 100% | viability, T/C (second compound 0.0316 µM, first compound 0.00949 µM) 102% | viability, T/C (second compound 0.0316 µM, first compound 0.03 µM) 104% | viability, T/C (second compound 0.0316 µM, first compound 0.0949 µM) 99.3% | viability, T/C (second compound 0.0316 µM, first compound 0.3 µM) 91.8% | viability, T/C (second compound 0.1 µM, first compound 0.000949 µM) 98% | viability, T/C (second compound 0.1 µM, first compound 0.003 µM) 102% | viability, T/C (second compound 0.1 µM, first compound 0.00949 µM) 93.7% | viability, T/C (second compound 0.1 µM, first compound 0.03 µM) 97.9% | viability, T/C (second compound 0.1 µM, first compound 0.0949 µM) 94.5% | viability, T/C (second compound 0.1 µM, first compound 0.3 µM) 83% | viability, T/C (second compound 0.316 µM, first compound 0.000949 µM) 90.3% | viability, T/C (second compound 0.316 µM, first compound 0.003 µM) 92.2% | viability, T/C (second compound 0.316 µM, first compound 0.00949 µM) 89.7% | viability, T/C (second compound 0.316 µM, first compound 0.03 µM) 89.4% | viability, T/C (second compound 0.316 µM, first compound 0.0949 µM) 93.8% | viability, T/C (second compound 0.316 µM, first compound 0.3 µM) 76.6%
> 300 nM: IC50 (second compound 0.0316 µM) | IC50 (second compound 0.1 µM) | IC50 (second compound 0.316 µM)
< 0.949 nM: IC50 (second compound 1 µM) | IC50 (second compound 3.16 µM) | IC50 (second compound 10 µM)
active: viability, T/C (second compound 1 µM, first compound 0.000949 µM) 4.73% | viability, T/C (second compound 1 µM, first compound 0.003 µM) 9.3% | viability, T/C (second compound 1 µM, first compound 0.00949 µM) 0.69% | viability, T/C (second compound 1 µM, first compound 0.03 µM) 1.14% | viability, T/C (second compound 1 µM, first compound 0.0949 µM) 0.77% | viability, T/C (second compound 1 µM, first compound 0.3 µM) 0.67% | viability, T/C (second compound 3.16 µM, first compound 0.000949 µM) 0.69% | viability, T/C (second compound 3.16 µM, first compound 0.003 µM) 0.65% | viability, T/C (second compound 3.16 µM, first compound 0.00949 µM) 0.63% | viability, T/C (second compound 3.16 µM, first compound 0.03 µM) 0.6% | viability, T/C (second compound 3.16 µM, first compound 0.0949 µM) 0.55% | viability, T/C (second compound 3.16 µM, first compound 0.3 µM) 1.62% | viability, T/C (second compound 10 µM, first compound 0.000949 µM) 0.51% | viability, T/C (second compound 10 µM, first compound 0.003 µM) 0.59% | viability, T/C (second compound 10 µM, first compound 0.00949 µM) 0.58% | viability, T/C (second compound 10 µM, first compound 0.03 µM) 0.51% | viability, T/C (second compound 10 µM, first compound 0.0949 µM) 0.4% | viability, T/C (second compound 10 µM, first compound 0.3 µM) 0.27%
